Measured values reported in patent US20260234129A1, “NOVEL IMIDAZOLE DERIVATIVE AND USE THEREOF” (PELEMED CO., LTD., priority 2023, published 2026).
Where two headings read alike, the source gives them in different places.

System: MV4-11 cells (FLT3-ITD-expressing AML cell line)
Assay: Cell proliferation inhibition, Alamar Blue
Type: cell-based, human
Settings: read-out: Cellular (GI50) MV4-11
Description: The cell proliferation inhibition experiment on acute myeloid leukemia (AML) cell lines was performed using FL3-ITD-expressing AML cell line MV4-11, BaF3-ITD-FLT3 F691L cell line, and BaF3-ITD-FLT3 D835Y cell line to test FLT3 inhibitory activity. All cell lines were human-derived cell lines, and the sources and culture conditions for each cell line are as follows.
Cell viability was assessed by a resazurin redox-based assay using the Alamar Blue Assay kit (Invitrogen, USA). Specifically, MV4-11, BaF3-ITD-FLT3-F691L, and BaF3-ITD-FLT3-D835Y cells were plated in 384-well plates at 8,000 cells in 45 μL of medium. As a negative control, dimethyl sulfoxide (DMSO) was added together with the compound. After three days (72 hours) of compound treatment, 5 μL of the Alamar Blue kit reagent was added to each well of the 384-well plates, followed by incubation at 37° C. for 2 hours in a humidified CO2 incubator. After incubation, fluorescence intensity (Flu) was measured at 544 nm and 590 nm using a SpectraMax iD3 Multi Mode Microplate Reader (Molecular Devices, ID3-STD).

[1] = Homo sapiens, MV4-11, 72 hours of compound treatment

NCCCNC(=O)c1ccc2[nH]nc(-c3ncc(-c4cccc([N+](=O)[O-])c4)[nH]3)c2c1 [Example 89, N-(3-aminopropyl)-3-(5-(3-nitrophenyl)-1H-imidazol-2-yl)-1H-indazole-5-carboxamide]
GI50 [1]: 100 to 1000 nM

NCCCNC(=O)c1ccc2[nH]nc(-c3nc(C(N)=O)c(-c4ccccc4)[nH]3)c2c1 [Example 113, N-(3-aminopropyl)-3-(4-carbamoyl-5-phenyl-1H-imidazol-2-yl)-1H-indazole-5-carboxamide]
GI50 [1]: 100 to 1000 nM

COCCn1c(-c2n[nH]c3ccc(C(=O)NCCCN)cc23)nc2ccc(F)cc21 [Example 106, N-(3-aminopropyl)-3-(6-fluoro-1-(2-methoxyethyl)-1H-benzo[d]imidazol-2-yl)-1H-indazole-5-carboxamide]
GI50 [1]: > 1000 nM

COc1cccc(-c2cnc(-c3n[nH]c4ccc(C(=O)NCCCN)cc34)[nH]2)c1 [Example 88, N-(3-aminopropyl)-3-(5-(3-methoxyphenyl)-1H-imidazol-2-yl)-1H-indazole-5-carboxamide]
GI50 [1]: 10 to 100 nM

NCCNC(=O)c1ccc2[nH]nc(-c3nc4ccc(F)cc4[nH]3)c2c1 [Example 37, N-(2-aminoethyl)-3-(6-fluoro-1H-benzo[d]imidazol-2-yl)-1H-indazole-5-carboxamide]
GI50 [1]: 10 to 100 nM

CC(=O)NCCCNC(=O)c1ccc2[nH]nc(-c3nc4ccc(N5CCCCC5)cc4[nH]3)c2c1 [Example 33, N-(3-acetamidopropyl)-3-(6-(piperidin-1-yl)-1H-benzo[d]imidazol-2-yl)-1H-indazole-5-carboxamide]
GI50 [1]: < 10 nM

CN1CCN(C2CCN(C(=O)c3ccc4[nH]nc(-c5nc6ccc(F)cc6[nH]5)c4c3)CC2)CC1 [Example 34, (3-(6-fluoro-1H-benzo[d]imidazol-2-yl)-1H-indazol-5-yl)(4-(4-methylpiperazin-1-yl)piperidin-1-yl)methanone]
GI50 [1]: > 1000 nM

O=C(N[C@@H]1[C@@H]2CNC[C@@H]21)c1ccc2[nH]nc(-c3nc4ccc(N5CCOCC5)cc4[nH]3)c2c1 [Example 71, N-((1R,5S,6r)-3-azabicyclo[3.1.0]hexan-6-yl)-3-(6-morpholino-1H-benzo[d]imidazol-2-yl)-1H-indazole-5-carboxamide]
GI50 (72 hours of compound treatment): 10 to 100 nM

CN(C)CCNC(=O)c1ccc2[nH]nc(-c3nc4ccc(F)cc4[nH]3)c2c1 [Example 35, N-(2-(dimethylamino)ethyl)-3-(6-fluoro-1H-benzo[d]imidazol-2-yl)-1H-indazole-5-carboxamide]
GI50 [1]: 10 to 100 nM

NCCCCNC(=O)c1ccc2[nH]nc(-c3nc4ccc(F)cc4[nH]3)c2c1 [Example 39, N-(4-aminobutyl)-3-(6-fluoro-1H-benzo[d]imidazol-2-yl)-1H-indazole-5-carboxamide]
GI50 [1]: 100 to 1000 nM

CNC1CCN(C(=O)c2ccc3[nH]nc(-c4nc5ccc(N6CCOCC6)cc5[nH]4)c3c2)CC1 [Example 70, (4-(methylamino)piperidin-1-yl)(3-(6-morpholino-1H-benzo[d]imidazol-2-yl)-1H-indazol-5-yl)methanone]
GI50 [1]: 10 to 100 nM

O=C(c1ccc2[nH]nc(-c3nc4ccc(N5CCOCC5)cc4[nH]3)c2c1)N1C[C@H]2C[C@@H]1CN2 [Example 65, ((1R,4R)-2,5-diazabicyclo[2.2.1]heptan-2-yl)(3-(6-morpholino-1H-benzo[d]imidazol-2-yl)-1H-indazol-5-yl)methanone]
GI50 [1]: 10 to 100 nM

NCCCNC(=O)c1ccc2[nH]nc(-c3nc4cccc(F)c4[nH]3)c2c1 [Example 25, N-(3-aminopropyl)-3-(7-fluoro-1H-benzo[d]imidazol-2-yl)-1H-indazole-5-carboxamide]
GI50 [1]: 10 to 100 nM

O=C(c1ccc2[nH]nc(-c3nc4ccccc4[nH]3)c2c1)N1CCN(c2ccc(F)cc2)CC1 [Example 3, (3-(1H-benzo[d]imidazol-2-yl)-1H-indazol-5-yl)(4-(4-fluorophenyl)piperazin-1-yl)methanone]
GI50 [1]: > 1000 nM

CC(=O)N1CC(CNC(=O)c2ccc3[nH]nc(-c4nc5ccc(N6CCOCC6)cc5[nH]4)c3c2)C1 [Example 61, N-((1-acetylazetidin-3-yl)methyl)-3-(6-morpholino-1H-benzo[d]imidazol-2-yl)-1H-indazole-5-carboxamide]
GI50 [1]: > 1000 nM

CN(C)CCCNC(=O)c1ccc2[nH]nc(-c3nc4ccc(C#N)cc4[nH]3)c2c1 [Example 10, 3-(6-cyano-1H-benzo[d]imidazol-2-yl)-N-(3-(dimethylamino)propyl)-1H-indazole-5-carboxamide]
GI50 [1]: 100 to 1000 nM

NCCCNC(=O)c1ccc2c(-c3nc4ccc(F)cc4[nH]3)n[nH]c2c1 [Example 110, N-(3-aminopropyl)-3-(6-fluoro-1H-benzo[d]imidazol-2-yl)-1H-indazole-6-carboxamide]
GI50 [1]: > 1000 nM

O=C(NCCCO)c1ccc2[nH]nc(-c3nc4ccc(F)cc4[nH]3)c2c1 [Example 111, 3-(6-fluoro-1H-benzo[d]imidazol-2-yl)-N-(3-hydroxypropyl)-1H-indazole-5-carboxamide]
GI50 [1]: 100 to 1000 nM

CC(=O)N1CC2(C1)CN(C(=O)c1ccc3[nH]nc(-c4nc5ccc(N6CCOCC6)cc5[nH]4)c3c1)C2 [Example 60, 1-(6-(3-(6-morpholino-1H-benzo[d]imidazol-2-yl)-1H-indazole-5-carbonyl)-2,6-diazaspiro[3.3]heptan-2-yl)ethan-1-one]
GI50 [1]: > 1000 nM

CN1CCN(C(=O)c2ccc3[nH]nc(-c4nc(-c5ccccc5)c[nH]4)c3c2)CC1 [Example 99, (4-methylpiperazin-1-yl)(3-(4-phenyl-1H-imidazol-2-yl)-1H-indazol-5-yl)methanone]
GI50 [1]: > 1000 nM

NCCCNC(=O)c1ccc2[nH]nc(-c3ncc(-c4ccc(N5CCOCC5)cc4)[nH]3)c2c1 [Example 90, N-(3-aminopropyl)-3-(5-(4-morpholinophenyl)-1H-imidazol-2-yl)-1H-indazole-5-carboxamide]
GI50 [1]: 100 to 1000 nM

COCc1cnc(-c2n[nH]c3ccc(C(=O)NCCCN)cc23)[nH]1 [Example 114, N-(3-aminopropyl)-3-(5-(methoxymethyl)-1H-imidazol-2-yl)-1H-indazole-5-carboxamide]
GI50 [1]: > 1000 nM

CS(=O)(=O)NCCNC(=O)c1ccc2[nH]nc(-c3nc(-c4ccccc4)c[nH]3)c2c1 [Example 94, N-(2-(methylsulfonamido)ethyl)-3-(4-phenyl-1H-imidazol-2-yl)-1H-indazole-5-carboxamide]
GI50 [1]: > 1000 nM

NCCCNC(=O)c1ccc2[nH]nc(-c3ncc(-c4cccc(O)c4)[nH]3)c2c1 [Example 92, N-(3-aminopropyl)-3-(5-(3-hydroxyphenyl)-1H-imidazol-2-yl)-1H-indazole-5-carboxamide]
GI50 [1]: 100 to 1000 nM

CN1CCN(CCn2c(-c3n[nH]c4ccc(C(=O)NCCCN)cc34)nc3ccc(F)cc32)CC1 [Example 108, N-(3-aminopropyl)-3-(6-fluoro-1-(2-(4-methylpiperazin-1-yl)ethyl)-1H-benzo[d]imidazol-2-yl)-1H-indazole-5-carboxamide]
GI50 [1]: > 1000 nM

Nc1ccc(NC(=O)c2ccc3[nH]nc(-c4nc5ccc(N6CCOCC6)cc5[nH]4)c3c2)cc1 [Example 72, N-(4-aminophenyl)-3-(6-morpholino-1H-benzo[d]imidazol-2-yl)-1H-indazole-5-carboxamide]
GI50 [1]: 10 to 100 nM

CN(C)CCCNC(=O)c1ccc2[nH]nc(-c3nc4ccc(F)cc4[nH]3)c2c1 [Example 36, N-(3-(dimethylamino)propyl)-3-(6-fluoro-1H-benzo[d]imidazol-2-yl)-1H-indazole-5-carboxamide]
GI50 [1]: 10 to 100 nM

NCCCNC(=O)c1ccc2[nH]nc(-c3ncc(-c4ccc(F)cc4)[nH]3)c2c1 [Example 81, N-(3-aminopropyl)-3-(5-(4-fluorophenyl)-1H-imidazol-2-yl)-1H-indazole-5-carboxamide]
GI50 [1]: 10 to 100 nM

NC1CCN(CCNC(=O)c2ccc3[nH]nc(-c4nc(-c5ccccc5)c[nH]4)c3c2)CC1 [Example 103, N-(2-(4-aminopiperidin-1-yl)ethyl)-3-(4-phenyl-1H-imidazol-2-yl)-1H-indazole-5-carboxamide]
GI50 [1]: > 1000 nM

CC(C)n1c(-c2n[nH]c3ccc(C(=O)NCCCN)cc23)nc2ccc(F)cc21 [Example 105, N-(3-aminopropyl)-3-(6-fluoro-1-isopropyl-1H-benzo[d]imidazol-2-yl)-1H-indazole-5-carboxamide]
GI50 [1]: > 1000 nM

NCCCNC(=O)c1ccc2[nH]nc(-c3nc4ccc(F)cc4n3CCO)c2c1 [Example 109, N-(3-aminopropyl)-3-(6-fluoro-1-(2-hydroxyethyl)-1H-benzo[d]imidazol-2-yl)-1H-indazole-5-carboxamide]
GI50 [1]: > 1000 nM

CN1CCN(C(=O)c2ccc3[nH]nc(-c4nc5ccccc5[nH]4)c3c2)CC1 [Example 2, (3-(1H-benzo[d]imidazol-2-yl)-1H-indazol-5-yl)(4-methylpiperazin-1-yl)methanone]
GI50 [1]: 100 to 1000 nM

NCCCNC(=O)c1ccc2[nH]nc(-c3ncc(-c4ccc(C(F)(F)F)cc4)[nH]3)c2c1 [Example 86, N-(3-aminopropyl)-3-(5-(4-(trifluoromethyl)phenyl)-1H-imidazol-2-yl)-1H-indazole-5-carboxamide]
GI50 [1]: 10 to 100 nM

CN(C)CCNC(=O)c1ccc2[nH]nc(-c3nc4ccc(N5CCOCC5)cc4[nH]3)c2c1 [Example 62, N-(2-(dimethylamino)ethyl)-3-(6-morpholino-1H-benzo[d]imidazol-2-yl)-1H-indazole-5-carboxamide]
GI50 [1]: < 10 nM
